Each molecule was assayed against TNFα trimer (Homo sapiens, UniProt P01375) (assay: TNFα FP Competitive Binding Assay). Settings: FP binding assay; 20 nM TNFα trimer, 1 nM OregonGreen488 probe; read-out: TNF IC50.
Procedure, shortened: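 Fluorescence polarization competition: 20 nM TNFα trimer with 1 nM fluorescein-labelled probe in HEPES/NaCl/EDTA/Triton X-100 buffer, compound in 12-point 1:3 dilutions (final top 338 μM or 100 μM). Incubated 18-24 h, background-subtracted mP read, variable-slope dose-response fitting.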

Sequence of TNFα trimer (P01375 77-233 limits assumed): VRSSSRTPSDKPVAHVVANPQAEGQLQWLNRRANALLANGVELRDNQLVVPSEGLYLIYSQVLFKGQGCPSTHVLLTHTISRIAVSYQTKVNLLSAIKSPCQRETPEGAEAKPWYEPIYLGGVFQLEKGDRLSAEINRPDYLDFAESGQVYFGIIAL

Compound | IC50
Cn1c(=O)c2ccc(-c3cnc(C4(O)CCN(C=O)CC4)nc3)cc2n1Cc1ccccc1OC(F)F [Example 20, 4-(5-(1-(2-(Difluoromethoxy)benzyl)-2-methyl-3-oxo-2,3-dihydro-1H-indazol-6-yl)pyrimidin-2-yl)-4-hydroxypiperidine-1-carbaldehyde] | 1000 to 10000 nM
Cc1ccc(OC(F)F)c(Cn2c3cc(-c4cnc(N5CCC(O)CC5)nc4)ccc3c(=O)n2C)c1 [Example 22, 1-(2-(Difluoromethoxy)-5-methylbenzyl)-6-(2-(4-hydroxypiperidin-1-yl)pyrimidin-5-yl)-2-methyl-1H-indazol-3(2H)-one] | < 1000 nM
Cn1c(=O)c2ccc(-c3cnc(C(C)(C)O)nc3)cc2n1Cc1cc(CO)ccc1OC(F)F [Example 16.7] | < 1000 nM
Cn1cc(Cn2c3cc(-c4cnc(N5CCN6C(=O)NC[C@H]6C5)nc4)ccc3c(=O)n2C)c(C(F)(F)F)c1 [Example 123, (S)-7-(5-(2-Methyl-1-((1-methyl-4-(trifluoromethyl)-1H-pyrrol-3-yl)methyl)-3-oxo-2,3-dihydro-1H-indazol-6-yl)pyrimidin-2-yl)hexahydroimidazo[1,5-a]pyrazin-3(2H)-one] | < 1000 nM
CN1C[C@H]2CN(c3ncc(-c4ccc5c(=O)n(C)n(Cc6ccccc6OC(F)F)c5c4)cn3)CCN2C1=O [Example 34, (R)-7-(5-(1-(2-(Difluoromethoxy)benzyl)-2-methyl-3-oxo-2,3-dihydro-1H-indazol-6-yl)pyrimidin-2-yl)-2-methylhexahydroimidazo[1,5-a]pyrazin-3(2H)-one] | < 1000 nM
Cn1c(=O)c2ccc(-c3cnc(N4CC(C(=O)O)C4)nc3)cc2n1Cc1ccccc1OC(F)F [Example 2.13] | > 10000 nM
Cn1c(=O)c2ccc(-c3cnc(N4CCOCC4)nc3)cc2n1Cc1nc(Cl)ccc1Cl [Example 1.16] | 1000 to 10000 nM
Cn1c(=O)c2ccc(-c3cnc(N4CCNC(=O)C4)nc3)cc2n1Cc1c(Cl)cccc1Cl [Example 8.2] | 1000 to 10000 nM
Cn1c(=O)c2ccc(-c3cnc(N4CC(C5COC5)C4)nc3)cc2n1Cc1ccccc1OC(F)F [Example 2.8] | 1000 to 10000 nM
Cn1c(=O)c2ccc(-c3cnn(C4CCOCC4)c3)cc2n1Cc1cccc(F)c1 [Example 11.2] | > 10000 nM
Cn1c(=O)c2ccc(-c3cnc(N4CCN5C(=O)NC[C@@H]5C4)nc3)cc2n1Cc1ccccc1OC(F)F (single isomer, unassigned) [Example 6] | < 1000 nM
CC(C)[C@@H](N)C(=O)OCC(=O)N1CCN(c2ncc(-c3ccc4c(=O)n(C)n(Cc5ccccc5OC(F)F)c4c3)cn2)C[C@H]1C [Example 14.13] | < 1000 nM
CN1CC[C@@H](Nc2ncc(-c3ccc4c(=O)n(C)n(Cc5cc(CO)ccc5OC(F)F)c4c3)cn2)CC1=O (single isomer, unassigned) [Example 28] | < 1000 nM
Cc1ccc(OC(F)F)c(Cn2c3nc(-c4cnc(C(C)(C)O)nc4C)ccc3c(=O)n2C)c1 [Example 95, 1-(2-(Difluoromethoxy)-5-methylbenzyl)-6-(2-(2-hydroxypropan-2-yl)-4-methylpyrimidin-5-yl)-2-methyl-1,2-dihydro-3H-pyrazolo[3,4-b]pyridin-3-one] | 1000 to 10000 nM
Cc1ccc(OC(F)F)c(Cn2c3cc(-c4cnc(N5CCN(C(=O)COP(=O)(O)O)[C@H](C)C5)nc4)ccc3c(=O)n2C)c1 [Example 69, (R)-2-(4-(5-(1-(2-(Difluoromethoxy)-5-methylbenzyl)-2-methyl-3-oxo-2,3-dihydro-1H-indazol-6-yl)pyrimidin-2-yl)-2-methyldihydrogen phosphate] | < 1000 nM
Cc1ccc(OC(F)F)c(Cn2c3cc(-c4cnc(N5CCN(C(=O)CO)[C@@H](C)C5)nc4)ccc3c(=O)n2C)c1 [Example 36, (S)-1-(2-(Difluoromethoxy)-5-methylbenzyl)-6-(2-(4-(2-hydroxyacetyl)-3-methylpiperazin-1-yl)pyrimidin-5-yl)-2-methyl-1H-indazol-3(2H)-one] | < 1000 nM
Cc1ccc(OC(F)F)c(Cn2c3cc(-c4cnc(N5CCN(C(=O)CO)[C@H](C)C5)nc4)ccc3c(=O)n2C)n1 [Example 76, (R)-1-((3-(Difluoromethoxy)-6-methylpyridin-2-yl)methyl)-6-(2-(4-(2-hydroxyacetyl)-3-methylpiperazin-1-yl)pyrimidin-5-yl)-2-methyl-1H-indazol-3(2H)-one] | < 1000 nM

Compound | IC50
Cc1ccc(OC(F)F)c(Cn2c3cc(-c4cnc(N5CCN(C(=O)[C@H](C)N)[C@H](C)C5)nc4)ccc3c(=O)n2C)c1 [Example 14.11] | < 1000 nM
Cc1ccccc1Cn1c2cc(-c3cnc(N4CCOCC4)nc3)ccc2c(=O)n1C [Example 1.3] | 1000 to 10000 nM
Cn1c(=O)c2ccc(-c3cc(N4CCOCC4)ncc3Cl)cc2n1Cc1ccccc1OC(F)F [Example 4.1] | > 10000 nM
Cn1c(=O)c2ccc(-c3cnc(N4CCN5C(=O)NC[C@H]5C4)nc3)cc2n1Cc1ccccc1OC(F)F (single isomer, unassigned) [Example 7] | < 1000 nM
Cn1c(=O)c2ccc(-c3cnc(C(C)(C)O)nc3)cc2n1Cc1cc(Cn2cn[nH]c2=O)ccc1OC(F)F [Example 92, 1-(2-(Difluoromethoxy)-((5-oxo-1H-1,2,4-triazol-4(5H)-yl)methy)benzyl)-6-(2-(2-hydroxypropan-2-yl)pyrimidin-5-yl)-2-methyl-1H-indazol-3(2H)-one] | 1000 to 10000 nM
Cn1c(=O)c2ccc(-c3cnc(N4CC(O)C4)nc3)cc2n1Cc1ccccc1OC(F)F [Example 2.9] | 1000 to 10000 nM
Cn1c(=O)c2ccc(-c3ccnc(OC4CCCOC4)c3)cc2n1Cc1ccccc1OC(F)F (stereo not shown) [Example 10.13] | 1000 to 10000 nM
Cc1nc(N2CCN(C(=O)CO)C[C@H]2C)ncc1-c1ccc2c(=O)n(C)n(Cc3ccccc3OC(F)F)c2c1 [Example 10.10] | < 1000 nM
Cc1ccc(OC(F)F)c(Cn2c3cc(-c4cnc(N5CCN(S(C)(=O)=O)[C@@H](C)C5)nc4)ccc3c(=O)n2C)c1 [Example 41, (S)-1-(2-(Difluoromethoxy)-5-methylbenzyl)-2-methyl-6-(2-(3-methyl-4-(methylsulfonyl)piperazin-1-yl)pyrimidin-5-yl)-1H-indazol-3(2H)-one] | < 1000 nM
CC(=O)N1CCN(c2ncc(-c3ccc4c(=O)n(C)n(Cc5cn(C(C)=O)cc5C(F)(F)F)c4c3)cn2)C[C@H]1C [Example 119, (R)-6-(2-(4-Acetyl-3-methylpiperazin-1-yl)pyrimidin-5-yl)-1-((1-acetyl-4-(trifluoromethyl)-1H-pyrrol-3-yl)methyl)-2-methyl-1H-indazol-3(2H)-one] | < 1000 nM
Cn1c(=O)c2ccc(-c3cnc(N4CC(CC(=O)O)C4)nc3)cc2n1Cc1ccccc1OC(F)F [Example 2.18] | > 10000 nM
COc1c[nH]nc1Cn1cc(Cn2c3cc(-c4cnc(C(C)(C)O)nc4)ccc3c(=O)n2C)c(C(F)(F)F)c1 [Example #130, 6-(2-(2-Hydroxypropan-2-yl)pyrimidin-5-yl)-1-((1-((4-methoxy-1H-pyrazol-3-yl)methyl)-4-(trifluoromethyl)-1H-pyrrol-3-yl)methyl)-2-methyl-1H-indazol-3(2H)-one] | < 1000 nM
Cn1c(=O)c2ccc(-c3cnc(N4CCN(C=O)CC4)nc3)cc2n1Cc1cc(CO)ccc1OC(F)F [Example 29, 4-(5-(1-(2-(Difluoromethoxy)-5-(hydroxymethyl)benzyl)-2-methyl-3-oxo-2,3-dihydro-1H-indazol-6-yl)pyrimidin-2-yl)piperazine-1-carbaldehyde] | < 1000 nM
C[C@@H]1CN(C(=O)CO)CCN1c1ncc(-c2ccc3c(=O)n(C)n(Cc4cc(CC#N)ccc4OC(F)F)c3c2)cn1 [Example 78, (R)-2-(4-(difluoromethoxy)-3-((6-(2-(4-(2-hydroxyacetyl)-2-methylpiperazin-1-yl)pyrimidin-5-yl)-2-methyl-3-oxo-2,3-dihydro-1H-indazol-1-yl)methyl)phenyl)acetonitrile] | < 1000 nM
Cn1c(=O)c2ccc(-c3cc(N4CCOCC4)ncc3Cl)cc2n1Cc1cccc(F)c1 [Example 3.1] | > 10000 nM
Cn1c(=O)c2ccc(-c3cnc(N4CCC(C(=O)O)CC4)nc3)cc2n1Cc1cc(Cl)ccc1Cl [Example 7.2] | 1000 to 10000 nM
Cc1cc2c(=O)n(C)n(Cc3ccccc3OC(F)F)c2cc1-c1cnc(N2CCOCC2)nc1 [Example 13.1] | < 1000 nM

Second part, the molecule after the results:

IC50 | Compound
1000 to 10000 nM | Cc1ccc(OC(F)F)c(Cn2c3cc(-c4cnc(N5CCC(C(N)=O)C5)nc4)ccc3c(=O)n2C)c1 (stereo not shown) [Example 20.1]
< 1000 nM | CC(c1ccccc1)n1c2cc(-c3cnc(N4CCN(C(=O)CO)[C@H](C)C4)nc3)ccc2c(=O)n1C (stereo partly shown) [Example 28.2]
1000 to 10000 nM | CC(=O)N1CCN(c2ncc(-c3ccc4c(=O)n(Cc5ccncc5)n(Cc5ccccc5Cl)c4c3)cn2)C[C@H]1C [Example 27.7]
< 1000 nM | Cc1ccc(OC(F)F)c(Cn2c3cc(-c4cnc(N5CCN(C(=O)CC#N)[C@@H](C)C5)nc4)ccc3c(=O)n2C)c1 [Example 25.1]
< 1000 nM | Cc1ccc(OC(F)F)c(Cn2c3cc(-c4cnc(N5CCN(C(=O)CO)C[C@@H]5C)nc4)ccc3c(=O)n2C)c1 [Example 22.15]
< 1000 nM | COC(=O)NCc1ccc(OC(F)F)c(Cn2c3cc(-c4cnc(N5CCN(C(C)=O)[C@H](C)C5)nc4)ccc3c(=O)n2C)c1 [Example 27.2]
< 1000 nM | Cc1ccc(OC(F)F)c(Cn2c3cc(-c4cnc(N5CCN(C(=O)CO)CC5)nc4)ccc3c(=O)n2C)c1 [Example 22.1]
< 1000 nM | Cc1ccc(OC(F)F)c(Cn2c3cc(-c4cnc(N5CCN(C(=O)CO)[C@H](C)C5)nc4)ccc3c(=O)n2C)c1 [Example 22.3]
1000 to 10000 nM | Cc1ccc(OC(F)F)c(Cn2c3nc(-c4cnc(C(C)(C)O)nc4)c(F)cc3c(=O)n2C)c1 [Example 26.7]
< 1000 nM | Cc1ccc(OC(F)F)c(Cn2c3cc(-c4cnc(C(C)(C)O)nc4)c(F)cc3c(=O)n2C)c1 [Example 17.1]
1000 to 10000 nM | CC(=O)N1CC(Cc2ccc(OC(F)F)c(Cn3c4cc(-c5cnc(C(C)(C)O)nc5)c(F)cc4c(=O)n3C)c2)C1 [Example 26.6]
1000 to 10000 nM | CC(=O)N1CCN(c2ncc(-c3ccc4c(=O)n(Cc5ccncc5)n(Cc5ccccc5OC(F)F)c4c3)cn2)C[C@H]1C [Example 27.6]

— patent US10160748B2 (AbbVie Inc., priority 2015, dated 2018)
